pIC50: −log10 of the molar value.
How the values were obtained:
[1] = Inhibition of alpha-glucosidase (unknown origin)
HepG2 [2] = assay: Anti-diabetic activity in insulin-resistant human HepG2 cells assessed as increase in insulin-stimulated 2-NBDG uptake at 10 uM pretreated for 24 hrs followed by 2-NBDG addition measured after 30 mins by fluorescence assay relative to control; assay type: functional
[3] = target: T1, Tyrosine-protein phosphatase non-receptor type 1 (Homo sapiens, UniProt P18031); assay: Inhibition of PTP1B (unknown origin) using pNPP as substrate pretreated for 10 mins followed by substrate addition measured after 20 mins by spectrophotometric method
T1 sequence (P18031 whole entry): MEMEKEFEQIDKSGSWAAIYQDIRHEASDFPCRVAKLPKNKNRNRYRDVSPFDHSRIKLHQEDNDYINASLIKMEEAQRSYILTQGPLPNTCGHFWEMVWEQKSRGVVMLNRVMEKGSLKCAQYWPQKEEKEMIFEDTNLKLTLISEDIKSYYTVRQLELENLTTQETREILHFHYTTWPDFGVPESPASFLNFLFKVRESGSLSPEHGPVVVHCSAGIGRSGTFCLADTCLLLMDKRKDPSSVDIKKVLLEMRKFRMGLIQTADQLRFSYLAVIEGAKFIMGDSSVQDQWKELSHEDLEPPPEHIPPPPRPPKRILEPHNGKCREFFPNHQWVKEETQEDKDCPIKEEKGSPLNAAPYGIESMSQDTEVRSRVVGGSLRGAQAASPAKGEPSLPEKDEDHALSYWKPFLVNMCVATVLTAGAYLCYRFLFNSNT

HepG2 [4] = assay: Anti-diabetic activity in insulin-resistant human HepG2 cells assessed as increase in insulin-stimulated 2-NBDG uptake pretreated for 24 hrs followed by 2-NBDG addition measured after 30 mins by fluorescence assay; assay type: functional, cell-based
HepG2 [5] = assay: Anti-diabetic activity in insulin-resistant human HepG2 cells assessed as increase in insulin-stimulated 2-NBDG uptake at 50 uM pretreated for 24 hrs followed by 2-NBDG addition measured after 30 mins by fluorescence assay relative to control; assay type: functional

Structure (SMILES)	pIC50 [1]	Activity (HepG2 [2])	pIC50 [3]	Activity (HepG2 [4])	Activity (HepG2 [5])
C[C@H]1O[C@H](O[C@H]2[C@H](O)[C@@H](O)[C@@H](O[C@H]3[C@H](O)[C@@H](O)C(O)O[C@@H]3CO)O[C@@H]2CO)[C@H](O)[C@@H](O)[C@@H]1N[C@H]1C=C(CO)[C@@H](O)[C@H](O)[C@H]1O (stereo partly drawn) [ACARBOSE]	3.75	–	–	–	–
CN(C)C(=N)NC(=N)N [METFORMIN]	–	125%	–	–	–
O=C1C[C@@H](c2ccc(O)cc2)Oc2cc(O)cc(O)c21 [NARINGENIN]	4.97	–	3.89	Dose-dependent effect	71.23%
C[C@@H]1O[C@@H](O[C@H]2[C@H](Oc3cc(O)c4c(c3)O[C@H](c3ccc(O)cc3)CC4=O)O[C@H](CO)[C@@H](O)[C@@H]2O)[C@H](O)[C@H](O)[C@H]1O [NARINGIN]	< 3.70	–	4.04	Dose-dependent effect	82.17%
C[C@@H]1O[C@@H](OC[C@H]2O[C@@H](Oc3cc(O)c4c(c3)O[C@H](c3ccc(O)cc3)CC4=O)[C@H](O)[C@@H](O)[C@@H]2O)[C@H](O)[C@H](O)[C@H]1O [NARIRUTIN]	< 3.70	–	4.25	Dose-dependent effect	86.93%
O=C1C[C@@H](c2ccc(O)cc2)Oc2cc(O[C@@H]3O[C@H](CO)[C@@H](O)[C@H](O)[C@H]3O)cc(O)c21 [PRUNIN]	3.97	–	4.76	Dose-dependent effect	109.45%

— ChEMBL document CHEMBL4028838, “Structure-related protein tyrosine phosphatase 1B inhibition by naringenin derivatives” (Bioorg Med Chem Lett, 2017)
